# According to patent publication US20100267561A1, “HERBICIDAL PYRIDAZINONE DERIVATIVES” (priority 2007, published 2010):
# Columns and labels:
# Type in all cases: in vivo
# [1] = test system: ducksalad (Heteranthera limosa); assay: Test B flooded paddy test plant response
# Summary of the method: (§1)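 2-leaf plants; pots flooded 3 cm above soil; compound added to paddy water; depth maintained. Greenhouse 13–15 d. Visual rating vs controls, 0 (no effect) to 100 (complete control); dash = no result.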
# [2] = test system: barnyardgrass (Echinochloa crus-galli); assay: Test B flooded paddy test plant response
# Summary of the method: as §1
# [3] = test system: umbrella sedge (Cyperus difformis); assay: Test B flooded paddy test plant response
# Summary of the method: as §1
# [4] = test system: green foxtail (Setaria viridis); assay: Test C pre-/postemergence plant response
# Description: (§2) Seeds of plant species selected from annual bluegrass (Poa annua), blackgrass (Alopecurus myosuroides), canola (Brassica rapa), downy bromegrass (Bromus tectorum), green foxtail (Setaria viridis), Italian ryegrass (Lolium multiflorum), canarygrass (Phalaris minor), pigweed (Amaranthus retroflexus), spring barley (Hordeum vulgare), spring wheat (Triticum aestivum), wild mustard (Sinapis arvensis), wild oat (Avena fatua), windgrass (Apera spica-venti), winter barley (Hordeum vulgare), and winter wheat (Triticum aestivum) were planted and treated preemergence with test chemicals formulated in a non-phytotoxic solvent mixture which included a surfactant. At the same time, plants selected from these crop and weed species were treated with postemergence applications of some of the test chemicals formulated in the same manner. Plants ranged in height from 2 to 18 cm (1- to 4-leaf stage) for postemergence treatments.
# (§3) Treated plants and controls were maintained in a controlled growth environment for 15 to 25 days after which time all species were compared to controls and visually evaluated. Plant response ratings, summarized in Table C, are based on a scale of 0 to 100 where 0 is no effect and 100 is complete control. A dash (-) response means no test result.
# [5] = test system: spring wheat (Triticum aestivum); assay: Test C pre-/postemergence plant response
# Description: as §2, §3
# [6] = test system: winter wheat (Triticum aestivum); assay: Test C pre-/postemergence plant response
# Description: as §2, §3
# [7] = test system: downy bromegrass (Bromus tectorum); assay: Test C pre-/postemergence plant response
# Description: as §2, §3
# [8] = test system: blackgrass (Alopecurus myosuroides); assay: Test C pre-/postemergence plant response
# Description: as §2, §3
# [9] = test system: pigweed (Amaranthus retroflexus); assay: Test C pre-/postemergence plant response
# Description: as §2, §3
# [10] = test system: windgrass (Apera spica-venti); assay: Test C pre-/postemergence plant response
# Description: as §2, §3
# [11] = test system: wild mustard (Sinapis arvensis); assay: Test C pre-/postemergence plant response
# Description: as §2, §3
# [12] = test system: annual bluegrass (Poa annua); assay: Test C pre-/postemergence plant response
# Description: as §2, §3
# [13] = test system: spring barley (Hordeum vulgare); assay: Test C pre-/postemergence plant response
# Description: as §2, §3
# [14] = test system: Italian ryegrass (Lolium multiflorum); assay: Test C pre-/postemergence plant response
# Description: as §2, §3
# [15] = test system: canarygrass (Phalaris minor); assay: Test C pre-/postemergence plant response; details: Preemergence
# Description: as §2, §3
# wild oat (Avena fatua) = assay: Test C pre-/postemergence plant response
# Description: as §2, §3
# [16] = Flood (flooded paddy test), 62 g ai/ha, scale 0 to 100, 0 no effect, 100 complete control
# [17] = Flood (flooded paddy test), 125 g ai/ha, scale 0 to 100, 0 no effect, 100 complete control
# [18] = Flood (flooded paddy test), 250 g ai/ha, scale 0 to 100, 0 no effect, 100 complete control
# [19] = Flood, 31 g ai/ha, scale 0 to 100
# [20] = Postemergence, 8 g ai/ha, scale 0 to 100, 0 no effect, 100 complete control
# [21] = Postemergence, 16 g ai/ha, scale 0 to 100, 0 no effect, 100 complete control
# [22] = Postemergence, 31 g ai/ha, scale 0 to 100, 0 no effect, 100 complete control
# [23] = Postemergence, 62 g ai/ha, scale 0 to 100, 0 no effect, 100 complete control
# [24] = Preemergence, 8 g ai/ha, scale 0 to 100 (0 no effect, 100 complete control)
# [25] = Preemergence, 16 g ai/ha, scale 0 to 100 (0 no effect, 100 complete control)
# [26] = Preemergence, 31 g ai/ha, scale 0 to 100 (0 no effect, 100 complete control)
# [27] = Preemergence, 62 g ai/ha, scale 0 to 100, 0 no effect, 100 complete control
smiles,measurement,setting,value
Cc1nn(C)c(=O)c(-n2nc(-c3ccc(Cl)cc3)cc2C)c1O [Compound 15],"Plant response rating, Ducksalad",[1]; [16],0
same,"Plant response rating, Ducksalad",[1]; [17],80
same,"Plant response rating, Ducksalad",[1]; [18],100
same,"Plant response rating, Ducksalad",[1]; [19],0
same,"Plant response rating, Barnyardgrass",[2]; [16],15
same,"Plant response rating, Barnyardgrass",[2]; [17],40
same,"Plant response rating, Barnyardgrass",[2]; [18],60
same,"Plant response rating, Barnyardgrass",[2]; [19],0
same,"Plant response rating, Sedge, Umbrella",[3]; [16],50
same,"Plant response rating, Sedge, Umbrella",[3]; [17],60
same,"Plant response rating, Sedge, Umbrella",[3]; [18],70
same,"Plant response rating, Sedge, Umbrella",[3]; [19],0
same,"Plant response rating, Foxtail, Green",[4]; [20],90
same,"Plant response rating, Foxtail, Green",[4]; [21],95
same,"Plant response rating, Foxtail, Green",[4]; [22],98
same,"Plant response rating, Foxtail, Green",[4]; [23],98
same,"Plant response rating, Foxtail, Green",[4]; [24],60
same,"Plant response rating, Foxtail, Green",[4]; [25],98
same,"Plant response rating, Foxtail, Green",[4]; [26],100
same,"Plant response rating, Foxtail, Green",[4]; [27],100
same,"Plant response rating, Wheat, Spring",[5]; [20],0
same,"Plant response rating, Wheat, Spring",[5]; [21],0
same,"Plant response rating, Wheat, Spring",[5]; [22],15
same,"Plant response rating, Wheat, Spring",[5]; [23],70
same,"Plant response rating, Wheat, Spring",[5]; [24],0
same,"Plant response rating, Wheat, Spring",[5]; [25],10
same,"Plant response rating, Wheat, Spring",[5]; [26],35
same,"Plant response rating, Wheat, Spring",[5]; [27],70
same,"Plant response rating, Wheat, Winter",[6]; [20],0
same,"Plant response rating, Wheat, Winter",[6]; [21],0
same,"Plant response rating, Wheat, Winter",[6]; [22],0
same,"Plant response rating, Wheat, Winter",[6]; [23],25
same,"Plant response rating, Wheat, Winter",[6]; [24],0
same,"Plant response rating, Wheat, Winter",[6]; [25],0
same,"Plant response rating, Wheat, Winter",[6]; [26],20
same,"Plant response rating, Wheat, Winter",[6]; [27],25
same,"Plant response rating, Bromegrass, Downy",[7]; [20],0
same,"Plant response rating, Bromegrass, Downy",[7]; [21],15
same,"Plant response rating, Bromegrass, Downy",[7]; [22],20
same,"Plant response rating, Bromegrass, Downy",[7]; [23],30
same,"Plant response rating, Bromegrass, Downy",[7]; [24],0
same,"Plant response rating, Bromegrass, Downy",[7]; [25],20
same,"Plant response rating, Bromegrass, Downy",[7]; [26],35
same,"Plant response rating, Bromegrass, Downy",[7]; [27],70
same,"Plant response rating, Blackgrass",[8]; [20],75
same,"Plant response rating, Blackgrass",[8]; [21],95
same,"Plant response rating, Blackgrass",[8]; [22],98
same,"Plant response rating, Blackgrass",[8]; [23],100
same,"Plant response rating, Blackgrass",[8]; [24],70
same,"Plant response rating, Blackgrass",[8]; [25],80
same,"Plant response rating, Blackgrass",[8]; [26],95
same,"Plant response rating, Blackgrass",[8]; [27],98
same,"Plant response rating, Pigweed",[9]; [20],0
same,"Plant response rating, Pigweed",[9]; [21],0
same,"Plant response rating, Pigweed",[9]; [22],0
same,"Plant response rating, Pigweed",[9]; [23],0
same,"Plant response rating, Pigweed",[9]; [24],0
same,"Plant response rating, Pigweed",[9]; [25],0
same,"Plant response rating, Pigweed",[9]; [26],0
same,"Plant response rating, Pigweed",[9]; [27],0
same,"Plant response rating, Windgrass",[10]; [20],0
same,"Plant response rating, Windgrass",[10]; [21],0
same,"Plant response rating, Windgrass",[10]; [22],0
same,"Plant response rating, Windgrass",[10]; [23],40
same,"Plant response rating, Windgrass",[10]; [25],25
same,"Plant response rating, Windgrass",[10]; [26],75
same,"Plant response rating, Windgrass",[10]; [27],95
same,"Plant response rating, Mustard, Wild",[11]; [20],0
same,"Plant response rating, Mustard, Wild",[11]; [21],0
same,"Plant response rating, Mustard, Wild",[11]; [22],0
same,"Plant response rating, Mustard, Wild",[11]; [23],20
same,"Plant response rating, Mustard, Wild",[11]; [24],0
same,"Plant response rating, Mustard, Wild",[11]; [25],0
same,"Plant response rating, Mustard, Wild",[11]; [26],0
same,"Plant response rating, Bluegrass",[12]; [20],0
same,"Plant response rating, Bluegrass",[12]; [21],25
same,"Plant response rating, Bluegrass",[12]; [22],40
same,"Plant response rating, Bluegrass",[12]; [23],50
same,"Plant response rating, Bluegrass",[12]; [24],40
same,"Plant response rating, Bluegrass",[12]; [25],60
same,"Plant response rating, Bluegrass",[12]; [26],75
same,"Plant response rating, Bluegrass",[12]; [27],90
same,"Plant response rating, Barley, Spring",[13]; [20],0
same,"Plant response rating, Barley, Spring",[13]; [21],0
same,"Plant response rating, Barley, Spring",[13]; [22],0
same,"Plant response rating, Barley, Spring",[13]; [23],50
same,"Plant response rating, Barley, Spring",[13]; [24],0
same,"Plant response rating, Barley, Spring",[13]; [25],0
same,"Plant response rating, Barley, Spring",[13]; [26],40
same,"Plant response rating, Barley, Spring",[13]; [27],65
same,"Plant response rating, Ryegrass, Italian",[14]; [20],50
same,"Plant response rating, Ryegrass, Italian",[14]; [21],100
same,"Plant response rating, Ryegrass, Italian",[14]; [22],100
same,"Plant response rating, Ryegrass, Italian",[14]; [23],100
same,"Plant response rating, Ryegrass, Italian",[14]; [24],15
same,"Plant response rating, Ryegrass, Italian",[14]; [25],100
same,"Plant response rating, Ryegrass, Italian",[14]; [26],100
same,"Plant response rating, Ryegrass, Italian",[14]; [27],100
same,"Plant response rating, Canarygrass","[15]; 8 g ai/ha, scale 0 to 100 (0 no effect, 100 complete control)",20
same,"Plant response rating, Canarygrass","[15]; 16 g ai/ha, scale 0 to 100 (0 no effect, 100 complete control)",70
same,"Plant response rating, Canarygrass","[15]; 31 g ai/ha, scale 0 to 100 (0 no effect, 100 complete control)",80
same,"Plant response rating, Canarygrass","[15]; 62 g ai/ha, scale 0 to 100, 0 no effect, 100 complete control",95
same,"Plant response rating, Oat, Wild",wild oat (Avena fatua); [20],0
same,"Plant response rating, Oat, Wild",wild oat (Avena fatua); [21],25
same,"Plant response rating, Oat, Wild",wild oat (Avena fatua); [22],90
same,"Plant response rating, Oat, Wild",wild oat (Avena fatua); [23],90
same,"Plant response rating, Oat, Wild",wild oat (Avena fatua); [24],0
same,"Plant response rating, Oat, Wild",wild oat (Avena fatua); [26],50
same,"Plant response rating, Oat, Wild",wild oat (Avena fatua); [27],65
